# Experiments:
# [1] = system: hypothalamic NF-κB signaling components; assay: Western blots of hypothalamic NF-κB signaling components after third-ventricle TGF-β1; format: in vivo, mice
# Description: Induction of hypothalamic NF-κB activation by TGF-β: TGF-β is often appreciated for anti-inflammatory feature in immune response, but, depending on physiological context and particularly in pathological conditions, TGF-β can be inflammatory (28)—although it is atypical and many details are still unclear. Here, because NF-κB has been known to atypically mediate hypothalamic inflammation in obesity or aging (12-14,18-20,23-27), it was analyzed if NF-κB signaling components were different in the hypothalamus of mice with third-ventricle injection of TGF-β vs. vehicle. […] First, since IκBα loss is the specific step that immediately liberates cytoplasmic NF-κB for nuclear translocation, and NF-κB subunit RelA in the nucleus undergoes phosphorylation, RelA phosphorylation was measured in mice injected with TGF-β1 or vehicle. […] Second, it was evaluated if TGF-β1-triggered NF-κB activation could be involved in HFD-induced hypothalamic inflammation. By employing heterogeneous Tgfb1 knockout (Tgfb1 +/−) mice, whether haplodeficiency of Tgfb1 in this mouse model could affect the induction of hypothalamic inflammation by HFD feeding was examined To do so, adult Tgfb1+/− mice and littermate WT controls were subjected to HFD feeding for three weeks, and chow feeding was included to provide as dietary control. Indeed, hypothalamic Tgfb1 mRNA in chow-fed Tgfb1+/− mice dropped by ˜50% compared to chow-fed WT (FIG. 4b), which was consistent with the literature (35). […] Using these hypothalamic samples, we examined mRNA levels of a list of inflammation-related molecules including TNFα, IL-6, SOCS3, TLR4, PTP1B, PKCλ and PKCι. […] Therefore, brain TGF-β excess plays a role in inducing diet-induced hypothalamic inflammation.
# Thus, while kinase (e.g., IKK)-induced IκBα phosphorylation is a crucial, rapid signaling reaction in classical inflammation, this process is not primarily critical in TGF-β1-induced hypothalamic inflammation.
# To further assess this point, it was asked if the effects of brain TGF-β excess could be impaired by ablation of a signaling component, such as toll-like receptor-4 (TLR4) or myeloid differentiation primary response gene 88 (MyD88), because they employ kinase signaling to induce IκBα phosphorylation and thus NF-κB activation. […]
# Protein, mRNA and peptide analyses. […] Quantification of Western blots was processed with Image J. Total RNA was extracted from hypothalamic tissue using TRIzol® (Invitrogen), and cDNA was synthesized using M-MLV RT System (Promega). Using SYBR® Green PCR Master Mix (Applied Biosystems), expression levels of target genes were analyzed via PCR amplification and quantification. […] Serum and CSF TGF-β content were measured using TGF-β ELISA kit (R&D Systems).
# Myd88 knockout mice = assay: Third-ventricle TGF-β1 delivery in Myd88 knockout mice; format: in vivo; settings: hypothalamic third ventricle; data not shown
# Description: To further assess this point, it was asked if the effects of brain TGF-β excess could be impaired by ablation of a signaling component, such as toll-like receptor-4 (TLR4) or myeloid differentiation primary response gene 88 (MyD88), because they employ kinase signaling to induce IκBα phosphorylation and thus NF-κB activation. Using a genetic model, T1r4 knockout (T1r4−/−) mice, TGF-β1 or vehicle was delivered into the hypothalamic third ventricle of these mice and littermate WT mice via pre-implanted cannula. Vehicle-injected T1r4−/− mice and WT mice were both normal in glucose and insulin tolerance tests (FIG. 4a, b). […] Altogether, brain TGF-β excess may use a mechanism that directly targets IκBα rather than upstream kinase signaling to activate hypothalamic NF-κB.
# [2] = third-ventricle injection vs vehicle
substance,measurement,setting,value
"TGF-β1: transforming growth factor-β1 (Sigma), cytokine dissolved in artificial cerebrospinal fluid for third-ventricle injection",hypothalamic TAK1 phosphorylation,"[1]; mouse, in vivo",did not lead to hypothalamic TAK1 phosphorylation
same,phosphorylated levels of IκBα,[1]; normalized by IκBα protein levels,did not change
same,hypothalamic IκBα protein levels,[1]; [2],significant reduction
same,hypothalamic RelA phosphorylation,[1]; [2],significantly increased
same,effect of lack of Myd88 on glucose or insulin intolerance following TGF-β1 delivery,Myd88 knockout mice,did not lead to a significant reduction

# — patent US20170114128A1, “USE OF TGF-BETA ANTAGONISTS OF TREAT TYPE-2 DIABETES” (ALBERT EINSTEIN COLLEGE OF MEDICINE, INC., priority 2014, published 2017)
